These results are taken from ChEMBL document CHEMBL4152326 (2018).

Holding throughout (assay type): functional
The subject of experiment [1] is Pseudomonas aeruginosa. Briefly: Antimicrobial activity against Pseudomonas aeruginosa SR24 in presence of human apo-transferrin by broth microdilution method. Background: In broth dilution the organism is exposed to a series of concentrations in liquid medium.
The subject of experiment [2] is Pseudomonas aeruginosa. In words: Antimicrobial activity against AmpC overproducing Pseudomonas aeruginosa SR24-12 in presence of human apo-transferrin by broth microdilution method.
Experiment [3] deals with Pseudomonas aeruginosa. In words: Antimicrobial activity against IMP-1 producing Pseudomonas aeruginosa SR27001 in presence of human apo-transferrin by broth microdilution method.
Experiment [4] has as its system Pseudomonas aeruginosa. Briefly: Antimicrobial activity against VIM-2 producing Pseudomonas aeruginosa SBRKM-28 in presence of human apo-transferrin by broth microdilution method.
Experiment [5] has as its system Pseudomonas aeruginosa. In words: Antimicrobial activity against IMP-1 producing Pseudomonas aeruginosa SR27060 in presence of human apo-transferrin by broth microdilution method.
The test system of experiment [6] is Pseudomonas aeruginosa. In words: Antimicrobial activity against Pseudomonas aeruginosa 27060deltaR1 harboring deletion of R1 plasmid in presence of human apo-transferrin by broth microdilution method.
Experiment [7] relates to Stenotrophomonas maltophilia. In words: Antimicrobial activity against L-1 producing Stenotrophomonas maltophilia SR21970 in presence of human apo-transferrin by broth microdilution method.
Experiment [8] deals with Acinetobacter baumannii. Briefly: Antimicrobial activity against OXA-23/OXA-58 producing Acinetobacter baumannii SR27323 in presence of human apo-transferrin by broth microdilution method.
Experiment [9] concerns Klebsiella pneumoniae. Briefly: Antimicrobial activity against KPC-2 producing Klebsiella pneumoniae ATCC BAA-1705 in presence of human apo-transferrin by broth microdilution method.
In experiment [10] the test system is Escherichia coli. In words: Antimicrobial activity against SHV-4 producing Escherichia coli ATCC BAA-200 in presence of human apo-transferrin by broth microdilution method.
Experiment [11] has as its system Pseudomonas aeruginosa. Briefly: Antibacterial activity against Pseudomonas aeruginosa SR27001 infected in Jcl:ICR mouse systemic infection model assessed as increase in mouse survival rate administered iv 1 to 5 hrs post infection measured over 7 days.

As for `CC(C)(O/N=C(\C(=O)N[C@@H]1C(=O)N2C(C(=O)[O-])=C(C[n+]3ccc(NC(=O)c4ccc(O)c(O)c4Cl)cc3)CS[C@H]12)c1csc(N)n1)C(=O)O`, the minimal inhibitory concentration (MIC) was 0.063 µg/mL in experiment [1]; 0.25 µg/mL in experiment [2]; 2 µg/mL in experiment [3]; 0.125 µg/mL in experiment [4]; 2 µg/mL in experiment [5]; 0.5 µg/mL in experiment [6]. Also, the MIC in [7] came out at 1 µg/mL; in experiment [8] it was 2 µg/mL; in [9], 0.25 µg/mL; in experiment [10], 2 µg/mL.

As for `Nc1nc(/C(=N/O[C@H](C(=O)O)c2ccccc2)C(=O)N[C@@H]2C(=O)N3C(C(=O)[O-])=C(C[N+]4(CCNC(=O)c5ccc(O)c(O)c5Cl)CCCC4)CS[C@H]23)cs1`, the minimal inhibitory concentration (MIC) in experiment [1] was 0.25 µg/mL; in experiment [2], 0.25 µg/mL; in [3], 0.5 µg/mL; in experiment [4], 0.125 µg/mL; in experiment [5], 4 µg/mL; in experiment [6], 0.5 µg/mL. The MIC worked out at 0.25 µg/mL in experiment [7], 0.25 µg/mL in experiment [8], 0.031 µg/mL in [9] and 0.5 µg/mL in experiment [10].

With `CC(C)(O/N=C(\C(=O)N[C@@H]1C(=O)N2C(C(=O)[O-])=C(C[N+]3(CCNC(=O)c4cc(O)c(O)c(Cl)c4)CCCC3)CS[C@H]12)c1csc(N)n1)C(=O)O`, the MIC in experiment [1] turned out to be 0.063 µg/mL; in experiment [2], 0.125 µg/mL; in [3], 1 µg/mL; in [5] it was 1 µg/mL; in experiment [6], 0.25 µg/mL; in experiment [7], 0.25 µg/mL. Besides, the minimal inhibitory concentration (MIC) is 0.25 µg/mL in experiment [8], no more than 0.031 µg/mL in [9] and 0.5 µg/mL in experiment [10]. For the same compound, the ED50 in experiment [11] is 10.2 mg/kg.

As to `C[C@H](O/N=C(\C(=O)N[C@@H]1C(=O)N2C(C(=O)[O-])=C(C[N+]3(CCNC(=O)c4ccc(O)c(O)c4Cl)CCCC3)CS[C@H]12)c1csc(N)n1)C(=O)O`, the MIC was found to be 0.25 µg/mL in experiment [1]; 0.25 µg/mL in experiment [2]; 1 µg/mL in [3]; 0.125 µg/mL in experiment [4]; 2 µg/mL in experiment [5]; 1 µg/mL in experiment [6]. In addition, the MIC in [7] came out at 0.5 µg/mL; in [8], 1 µg/mL; in [9] it was 0.063 µg/mL; in experiment [10] it was 4 µg/mL.

Consider `CC(C)(O/N=C(\C(=O)N[C@@H]1C(=O)N2C(C(=O)[O-])=C(C[N+]3(CCNC(=O)c4cc(O)c(O)cc4Cl)CCCC3)CS[C@H]12)c1csc(N)n1)C(=O)O`, for which the minimal inhibitory concentration (MIC) in [1] amounted to 0.063 µg/mL; in [2] it was 0.125 µg/mL; in experiment [3] it was 2 µg/mL; in experiment [5], 2 µg/mL; in [6], 1 µg/mL; in experiment [7], 0.25 µg/mL. The MIC was 1 µg/mL in experiment [8], no more than 0.031 µg/mL in experiment [9] and 2 µg/mL in [10]. Further, the ED50 in experiment [11] came to 10.2 mg/kg.

For `Nc1nc(/C(=N/OCc2cccc(C(=O)O)c2)C(=O)N[C@@H]2C(=O)N3C(C(=O)[O-])=C(C[N+]4(CCNC(=O)c5ccc(O)c(O)c5Cl)CCCC4)CS[C@H]23)cs1`, the MIC in experiment [1] was 0.25 µg/mL; in experiment [2], 0.5 µg/mL; in experiment [3], 1 µg/mL; in experiment [4] it was 0.125 µg/mL; in experiment [5] it was 8 µg/mL; in experiment [6], 2 µg/mL. Also, the MIC in experiment [7] is 2 µg/mL; in experiment [8], 0.5 µg/mL; in experiment [9] it was 2 µg/mL; in [10] it was 16 µg/mL.

Turning to `CC(C)(O/N=C(\C(=O)N[C@@H]1C(=O)N2C(C(=O)[O-])=C(C[N+](C)(C)C3CCN(C(=O)c4ccc(O)c(O)c4Cl)CC3)CS[C@H]12)c1csc(N)n1)C(=O)O`, the MIC in experiment [1] amounted to 0.5 µg/mL; in [2] it was 1 µg/mL; in [3], 4 µg/mL; in experiment [4] it was 0.5 µg/mL; in experiment [5], 4 µg/mL; in experiment [6], 1 µg/mL. In addition, the MIC in [7] worked out at 1 µg/mL; in [8], 2 µg/mL; in [9] it was 0.125 µg/mL; in experiment [10], 2 µg/mL.

As for `CC(C)(O/N=C(\C(=O)N[C@@H]1C(=O)N2C(C(=O)[O-])=C(C[N@+]34CCC[C@H]3CN(C(=O)c3ccc(O)c(O)c3Cl)CC4)CS[C@H]12)c1csc(N)n1)C(=O)O`, the MIC was 0.25 µg/mL in experiment [1]; 0.5 µg/mL in experiment [2]; 0.5 µg/mL in experiment [3]; 0.25 µg/mL in experiment [4]; 4 µg/mL in experiment [5]; 1 µg/mL in experiment [6]. Besides, the MIC turned out to be 0.5 µg/mL in [7], 2 µg/mL in experiment [8], 0.063 µg/mL in experiment [9] and 2 µg/mL in experiment [10].

Consider `CC(C)(O/N=C(\C(=O)N[C@@H]1C(=O)N2C(C(=O)[O-])=C(C[N+]3(CCNC(=O)c4ccc(O)c(O)c4Cl)CCCCC3)CS[C@H]12)c1csc(N)n1)C(=O)O`, for which the minimum inhibitory concentration (MIC) in [1] is 0.25 µg/mL; in [2] it was 0.25 µg/mL; in experiment [3], 1 µg/mL; in experiment [4], 0.125 µg/mL; in experiment [5], 2 µg/mL; in [6], 1 µg/mL. In addition, the MIC was 0.25 µg/mL in experiment [7], 1 µg/mL in [8], 0.031 µg/mL in experiment [9] and 0.5 µg/mL in experiment [10].

As to `CC(C)(O/N=C(\C(=O)N[C@@H]1C(=O)N2C(C(=O)[O-])=C(C[N+]3(CCNC(=O)c4[nH]cc(O)c(=O)c4Cl)CCCC3)CS[C@H]12)c1csc(N)n1)C(=O)O`, the MIC in [1] is 2 µg/mL; in experiment [2], 24 µg/mL; in [4], 4 µg/mL; in experiment [5], greater than 32 µg/mL; in experiment [6] it was 8 µg/mL; in experiment [7] it was 4 µg/mL. Moreover, the results for the MIC in [8], in experiment [9] and in [10] were 32 µg/mL, 2 µg/mL and 16 µg/mL, respectively.

Turning to `CC(C)(O/N=C(\C(=O)N[C@@H]1C(=O)N2C(C(=O)[O-])=C(C[N+]3(CCNC(=O)c4ccc(O)c(O)c4Cl)CCCC3)CS[C@H]12)c1nc(N)sc1Cl)C(=O)O`, the MIC in [1] worked out at 0.25 µg/mL; in experiment [2], 0.5 µg/mL; in experiment [3], 1 µg/mL; in experiment [4] it was 0.125 µg/mL; in [5], 1 µg/mL; in [6] it was 1 µg/mL. Moreover, the MIC was 2 µg/mL in experiment [7], 2 µg/mL in [8], 0.063 µg/mL in experiment [9] and 1 µg/mL in [10].

On to `CC(C)(O/N=C(\C(=O)N[C@@H]1C(=O)N2C(C(=O)[O-])=C(C[N+](C)(C)CCNC(=O)c3ccc(O)c(O)c3Cl)CS[C@H]12)c1csc(N)n1)C(=O)O`, for which the minimum inhibitory concentration (MIC) was 0.063 µg/mL in experiment [1]; 4 µg/mL in experiment [2]; greater than 32 µg/mL in experiment [3]; 0.25 µg/mL in [4]; 32 µg/mL in [5]; 2 µg/mL in experiment [6]. For the same compound, the MIC in experiment [7] was greater than 32 µg/mL; in [8], 0.5 µg/mL; in [9], 0.5 µg/mL; in [10] it was greater than 32 µg/mL.

For `COc1c(O)ccc(C(=O)NCC[N+]2(CC3=C(C(=O)[O-])N4C(=O)[C@@H](NC(=O)/C(=N\OC(C)(C)C(=O)O)c5csc(N)n5)[C@H]4SC3)CCCC2)c1Cl`, the MIC in experiment [1] is 2 µg/mL; in experiment [2], 8 µg/mL; in [3] it was 32 µg/mL; in experiment [4], 16 µg/mL; in experiment [7], 28 µg/mL; in experiment [8], greater than 32 µg/mL. Moreover, the results for the MIC in [9] and in experiment [10] were 4 µg/mL and 16 µg/mL, respectively.

On to `Nc1nc(/C(=N/O[C@@H](CC(=O)O)C(=O)O)C(=O)N[C@@H]2C(=O)N3C(C(=O)[O-])=C(C[N+]4(CCNC(=O)c5ccc(O)c(O)c5Cl)CCCC4)CS[C@H]23)cs1`, for which the MIC in experiment [1] worked out at 0.25 µg/mL; in experiment [2], 0.25 µg/mL; in experiment [3], 1 µg/mL; in experiment [4], 0.063 µg/mL; in experiment [5], 1 µg/mL; in experiment [6], 0.5 µg/mL. For the same compound, the minimum inhibitory concentration (MIC) was determined as 0.25 µg/mL in experiment [7], 1 µg/mL in experiment [8], 0.063 µg/mL in [9] and 1 µg/mL in [10].

On to `CC(C)(O/N=C(\C(=O)N[C@@H]1C(=O)N2C(C(=O)[O-])=C(C[N+]3(CCC(=O)Nc4ccc(O)c(O)c4Cl)CCCC3)CS[C@H]12)c1csc(N)n1)C(=O)O`, for which the MIC in experiment [1] worked out at 0.25 µg/mL; in [2] it was 0.5 µg/mL; in [3] it was 2 µg/mL; in experiment [4], 0.25 µg/mL; in experiment [5], 2 µg/mL; in [6] it was 1 µg/mL. Also, the MIC in experiment [7] came out at 1 µg/mL; in experiment [8], 2 µg/mL; in [9], 0.25 µg/mL; in experiment [10] it was 2 µg/mL.

Regarding `CC(C)(O/N=C(\C(=O)N[C@@H]1C(=O)N2C(C(=O)[O-])=C(C[N@@+]3(C)C[C@H]4CN(C(=O)c5ccc(O)c(O)c5Cl)C[C@H]4C3)CS[C@H]12)c1csc(N)n1)C(=O)O`, the MIC in experiment [1] was found to be 0.25 µg/mL; in experiment [2], 0.25 µg/mL; in experiment [3], 4 µg/mL; in experiment [4], 0.125 µg/mL; in [5], 4 µg/mL; in experiment [6], 0.5 µg/mL. In addition, in experiment [7], the MIC turned out to be 0.5 µg/mL.

On to `CC(C)(O/N=C(\C(=O)N[C@@H]1C(=O)N2C(C(=O)[O-])=C(C[n+]3cc(NC(=O)c4ccc(O)c(O)c4Cl)c4n3CCN4)CS[C@H]12)c1csc(N)n1)C(=O)O`, for which the MIC in experiment [1] was found to be 0.25 µg/mL; in [2] it was 0.5 µg/mL; in experiment [3], 16 µg/mL; in [4] it was 0.5 µg/mL; in [5], 16 µg/mL; in experiment [6] it was 0.5 µg/mL. Further, the MIC was greater than 16 µg/mL in experiment [7], 0.5 µg/mL in [8], 0.125 µg/mL in [9] and 1 µg/mL in experiment [10].

For orientation: MIC means the least concentration at which growth counts as inhibited. One may read the ED50 as the midpoint of the dose-response relation.
